In PubChem BioAssay (NCI):
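Briefly, cells in 96-well plates were exposed to five compound concentrations for 48 h, and endpoints were estimated by linear interpolation. GI50 is the concentration that inhibits growth by half. TGI is the concentration that stops growth completely.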

How the values were obtained:
Assay in all cases: NCI tumour cell line growth inhibition, 48 h
786-0 renal = system: 786-0 renal
A498 renal = system: A498 renal
A549 NSCLC = system: A549 NSCLC
ACHN renal = system: ACHN renal
BT-549 breast = system: BT-549 breast
CAKI-1 renal = system: CAKI-1 renal
CCRF-CEM leukemia = system: CCRF-CEM leukemia
COLO 205 colon = system: COLO 205 colon
DU-145 prostate = system: DU-145 prostate
EKVX NSCLC = system: EKVX NSCLC
HCC-2998 colon = system: HCC-2998 colon
HCT-116 colon = system: HCT-116 colon
HCT-15 colon = system: HCT-15 colon
HL-60(TB) leukemia = system: HL-60(TB) leukemia
HOP-62 NSCLC = system: HOP-62 NSCLC
HOP-92 NSCLC = system: HOP-92 NSCLC
HS 578T breast = system: HS 578T breast
HT29 colon = system: HT29 colon
IGROV1 ovarian = system: IGROV1 ovarian
K-562 leukemia = system: K-562 leukemia
KM12 colon = system: KM12 colon
LOX IMVI melanoma = system: LOX IMVI melanoma
M14 melanoma = system: M14 melanoma
MALME-3M melanoma = system: MALME-3M melanoma
MCF7 breast = system: MCF7 breast
MDA-MB-231 breast = system: MDA-MB-231 breast
MDA-MB-435 = system: MDA-MB-435
MDA-MB-468 breast = system: MDA-MB-468 breast
MOLT-4 leukemia = system: MOLT-4 leukemia
NCI-H226 lung = system: NCI-H226 lung
NCI-H23 lung = system: NCI-H23 lung
NCI-H460 lung = system: NCI-H460 lung
NCI-H522 lung = system: NCI-H522 lung
NCI/ADR-RES ovarian = system: NCI/ADR-RES ovarian
OVCAR-3 ovarian = system: OVCAR-3 ovarian
OVCAR-4 ovarian = system: OVCAR-4 ovarian
OVCAR-5 ovarian = system: OVCAR-5 ovarian
OVCAR-8 ovarian = system: OVCAR-8 ovarian
PC-3 prostate = system: PC-3 prostate
RPMI-8226 leukemia = system: RPMI-8226 leukemia
RXF 393 renal = system: RXF 393 renal
SF-268 CNS = system: SF-268 CNS
SF-295 CNS = system: SF-295 CNS
SF-539 CNS = system: SF-539 CNS
SK-MEL-2 melanoma = system: SK-MEL-2 melanoma
SK-MEL-28 melanoma = system: SK-MEL-28 melanoma
SK-MEL-5 melanoma = system: SK-MEL-5 melanoma
SK-OV-3 ovarian = system: SK-OV-3 ovarian
SN12C renal = system: SN12C renal
SNB-19 CNS = system: SNB-19 CNS
SNB-75 CNS = system: SNB-75 CNS
SR leukemia = system: SR leukemia
SW-620 colon = system: SW-620 colon
T-47D breast = system: T-47D breast
TK-10 renal = system: TK-10 renal
U251 CNS = system: U251 CNS
UACC-257 melanoma = system: UACC-257 melanoma
UACC-62 melanoma = system: UACC-62 melanoma
UO-31 renal = system: UO-31 renal

O=C(c1ccc(Cl)cc1)C(c1c[nH]c2ccccc12)c1c[nH]c2ccccc12
GI50 (786-0 renal): 2.12 µM
TGI (786-0 renal): 4.22 µM
GI50 (A498 renal): 18 µM
TGI (A498 renal): 34.1 µM
GI50 (A549 NSCLC): 13.5 µM
TGI (A549 NSCLC): 31.6 µM
GI50 (ACHN renal): 1.91 µM
TGI (ACHN renal): 4.17 µM
GI50 (BT-549 breast): 4.09 µM
TGI (BT-549 breast): 14.4 µM
GI50 (CAKI-1 renal): 2.94 µM
TGI (CAKI-1 renal): 14.3 µM
GI50 (CCRF-CEM leukemia): 3.21 µM
TGI (CCRF-CEM leukemia): > 100 µM
GI50 (COLO 205 colon): 16.3 µM
TGI (COLO 205 colon): 31.2 µM
GI50 (DU-145 prostate): 4.36 µM
TGI (DU-145 prostate): 16.4 µM
GI50 (EKVX NSCLC): 6.46 µM
TGI (EKVX NSCLC): 20.8 µM
GI50 (HCC-2998 colon): 2.33 µM
TGI (HCC-2998 colon): 5.8 µM
GI50 (HCT-116 colon): 1.65 µM
TGI (HCT-116 colon): 3.16 µM
GI50 (HCT-15 colon): 2.21 µM
TGI (HCT-15 colon): 6.16 µM
GI50 (HL-60(TB) leukemia): 2.6 µM
TGI (HL-60(TB) leukemia): 8.35 µM
GI50 (HOP-62 NSCLC): 13 µM
TGI (HOP-62 NSCLC): 27.3 µM
GI50 (HOP-92 NSCLC): 3.32 µM
TGI (HOP-92 NSCLC): 16.8 µM
GI50 (HS 578T breast): 13.4 µM
TGI (HS 578T breast): 45.8 µM
GI50 (HT29 colon): 2.79 µM
TGI (HT29 colon): 6.97 µM
GI50 (IGROV1 ovarian): 4.05 µM
TGI (IGROV1 ovarian): 16.8 µM
GI50 (K-562 leukemia): 2.99 µM
TGI (K-562 leukemia): 9.64 µM
GI50 (KM12 colon): 8.98 µM
TGI (KM12 colon): 22 µM
GI50 (LOX IMVI melanoma): 1.68 µM
TGI (LOX IMVI melanoma): 3.26 µM
GI50 (M14 melanoma): 2.9 µM
TGI (M14 melanoma): 12.7 µM
GI50 (MALME-3M melanoma): 3.41 µM
TGI (MALME-3M melanoma): 15.9 µM
GI50 (MCF7 breast): 2.38 µM
TGI (MCF7 breast): 8.25 µM
GI50 (MDA-MB-231 breast): 4.87 µM
TGI (MDA-MB-231 breast): 20.2 µM
GI50 (MDA-MB-435): 3.85 µM
TGI (MDA-MB-435): 14.3 µM
GI50 (MDA-MB-468 breast): 2.69 µM
TGI (MDA-MB-468 breast): 7.65 µM
GI50 (MOLT-4 leukemia): 2.69 µM
TGI (MOLT-4 leukemia): 12.2 µM
GI50 (NCI-H226 lung): 8.88 µM
TGI (NCI-H226 lung): 24.7 µM
GI50 (NCI-H23 lung): 4.05 µM
TGI (NCI-H23 lung): 17.4 µM
GI50 (NCI-H460 lung): 3.65 µM
TGI (NCI-H460 lung): 14.9 µM
GI50 (NCI-H522 lung): 1.74 µM
TGI (NCI-H522 lung): 3.52 µM
GI50 (NCI/ADR-RES ovarian): 3.52 µM
TGI (NCI/ADR-RES ovarian): 15.8 µM
GI50 (OVCAR-3 ovarian): 2.56 µM
TGI (OVCAR-3 ovarian): 7.18 µM
GI50 (OVCAR-4 ovarian): 5.23 µM
TGI (OVCAR-4 ovarian): 18.2 µM
GI50 (OVCAR-5 ovarian): 3.79 µM
TGI (OVCAR-5 ovarian): 15.5 µM
GI50 (OVCAR-8 ovarian): 11.2 µM
TGI (OVCAR-8 ovarian): 24.2 µM
GI50 (PC-3 prostate): 3.08 µM
TGI (PC-3 prostate): 12.7 µM
GI50 (RPMI-8226 leukemia): 3.01 µM
TGI (RPMI-8226 leukemia): 15.4 µM
GI50 (RXF 393 renal): 2.93 µM
TGI (RXF 393 renal): 9.21 µM
GI50 (SF-268 CNS): 4.85 µM
TGI (SF-268 CNS): 19.8 µM
GI50 (SF-295 CNS): 12.1 µM
TGI (SF-295 CNS): 24.9 µM
GI50 (SF-539 CNS): 5.53 µM
TGI (SF-539 CNS): 18.8 µM
GI50 (SK-MEL-2 melanoma): 12.2 µM
TGI (SK-MEL-2 melanoma): 26.1 µM
GI50 (SK-MEL-28 melanoma): 2.36 µM
TGI (SK-MEL-28 melanoma): 6.42 µM
GI50 (SK-MEL-5 melanoma): 11.3 µM
TGI (SK-MEL-5 melanoma): 23.7 µM
GI50 (SK-OV-3 ovarian): 14.1 µM
TGI (SK-OV-3 ovarian): 27.7 µM
GI50 (SN12C renal): 3.13 µM
TGI (SN12C renal): 12 µM
GI50 (SNB-19 CNS): 15.4 µM
TGI (SNB-19 CNS): 29.6 µM
GI50 (SNB-75 CNS): 2.43 µM
TGI (SNB-75 CNS): 13.3 µM
GI50 (SR leukemia): 2.73 µM
TGI (SR leukemia): 10.9 µM
GI50 (SW-620 colon): 2.99 µM
TGI (SW-620 colon): 9.91 µM
GI50 (T-47D breast): 3.01 µM
TGI (T-47D breast): 16 µM
GI50 (TK-10 renal): 18.9 µM
TGI (TK-10 renal): 33.2 µM
GI50 (U251 CNS): 10.8 µM
TGI (U251 CNS): 24.1 µM
GI50 (UACC-257 melanoma): 4.93 µM
TGI (UACC-257 melanoma): 18.1 µM
GI50 (UACC-62 melanoma): 4.49 µM
TGI (UACC-62 melanoma): 17.6 µM
GI50 (UO-31 renal): 3.41 µM
TGI (UO-31 renal): 17 µM
